The structures appear in SMILES notation. Where a name gives a salt, the structure may show the parent alone.

This test deals with collagen 1. As to the kind of experiment: WI-38 collagen 1 inhibition assay (anti-Collagen I immunofluorescence).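 Note: minus sign means inactive.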 The test is classed as cell-based. Particulars: cellular EC50, WI-38 human lung fibroblasts, values are LogEC50 classes.
Regarding `Cc1ncnc(N2CCN(Cc3nc4ccc(Cl)cc4o3)CC2)c1C` [compound 302, 6-chloro-2-((4-(5,6-dimethylpyrimidin-4-yl)piperazin-1-yl)methyl)benzo[d]oxazole], the “COL1 Efficacy (LogEC50)” value is given as “+++ (+++: <−6)”.
The result for `c1ccc2nc(N3CCN(Cc4cc5ccccc5[nH]4)CC3)ccc2c1` [Compound 237, 2-[4-(1H-indol-2-ylmethyl)piperazin-1-yl]quinolone] reads “++ (++: −5 to −6)”; that for `c1ccc2[nH]c(CN3CCN(C4CCCC4)CC3)cc2c1` [Compound 233, 2-[(4-cyclopentylpiperazin-1-yl)methyl]-1H-indole], “+ (+: >−5)”.
The value for `Cc1ncnc(N2CCN(Cc3nc4cc(C(F)(F)F)ccc4o3)CC2)c1C` [compound 299, 2-((4-(5,6-dimethylpyrimidin-4-yl)piperazin-1-yl)methyl)-5-(trifluoromethyl)benzo[d]oxazole] was “+++ (+++: <−6)”; that for `N#Cc1ccc2[nH]c(CN3CCN(c4ccncc4)CC3)cc2c1` [compound 256, 2-[[4-(4-pyridyl)piperazin-1-yl]methyl]-1H-indole-5-carbonitrile] was “+++ (+++: <−6)”.
The result for `c1ccc2[nH]c(CN3CCN(c4ccnnc4)CC3)cc2c1` [compound 279, 2-[(4-pyridazin-4-ylpiperazin-1-yl)methyl]-1H-indole formate] reads “−”; that for `Cc1ncnc(N2CCN(Cc3nc4ccccc4s3)CC2)c1C` [compound 254, 2-[[4-(5,6-dimethylpyrimidin-4-yl)piperazin-1-yl]methyl]-1,3-benzothiazole], “+++ (+++: <−6)”.
For the compound `CCCN1CCN(Cc2cc3ccccc3[nH]2)CC1` [Compound 230, 2-[(4-propylpiperazin-1-yl)methyl]-1H-indole], the “COL1 Efficacy (LogEC50)” value is “+ (+: >−5)”.
The value for `COc1ccc2cc(CN3CCN(c4ccncc4)CC3)[nH]c2c1` [compound 228, 6-methoxy-2-[[4-(4-pyridyl)piperazin-1-yl]methyl]-1H-indole] was “+ (+: >−5)”; that for `Cn1cnc(N2CCN(Cc3nc4ccccc4o3)CC2)c1` [compound 340] was “−”; that for `O=C(c1cc2ccccc2[nH]1)N1CCN(c2ccncc2)CC1` [compound 244, (1H-indol-2-yl)(4-(pyridin-4-yl)piperazin-1-yl)methanone] was “+ (+: >−5)”.
The value for `c1ccc2[nH]c(CN3CCC(Oc4ccncc4)CC3)cc2c1` [compound 268, 2-[[4-(4-pyridyloxy)-1-piperidyl]methyl]-1H-indole] was “++ (++: −5 to −6)”; that for `Cc1cnccc1N1CCN(Cc2cc3ccccc3[nH]2)CC1` [Compound 222, 2-[[4-(3-methyl-4-pyridyl)piperazin-1-yl]methyl]-1H-indole] was “++ (++: −5 to −6)”.

Values taken from patent US20230150980A1, “COLLAGEN 1 TRANSLATION INHIBITORS AND METHODS OF USE THEREOF” (Anima Biotech Inc., priority 2020, published 2023).
